# Results: US20190352276A1, “INHIBITORS OF BRUTON'S TYROSINE KINASE” (Joint Stock Company "Biocad", priority 2016, published 2019)
# Columns and labels:
# [1] = test system: Mino (mantle cell lymphoma); assay: Antiproliferative activity, Mino cells (Alamar Blue); type: cell-based; conditions: Homo sapiens
# Experimental: (§1) Antiproliferative activity of BTK inhibitors was measured in cell-based bioassay on B-cells cultures: Mino (mantle cell lymphoma, ATCC® CRL-3000™), Z-138 (mantle cell lymphoma, ATCC® CRL-3001™) and DOHH2 (follicular lymphoma, Creative Bioarray CSC-C0219) using cell viability reagent Alamar Blue (Invitrogen, #DAL 1100). Cells were cultured in 10% FB S-supplemented (HyClone, #SH3008803/Gibco, #16140-071) RPMI-1640 (PanEco, #S330p) for at least 1 passage after thawing, washed with PBS and passaged in 96-well culture plates (Corning, #3599) with growth medium with 10% FBS (HyClone, #SH3008803/Gibco, #16140-071) and antibiotic (50 μg/ml of gentamicin (Biolot, #1.3.16))≈3*10^4 cells in 50 μl of medium per well.
# (§2) The compounds were dissolved in DMSO and diluted with the assay medium to final concentrations ranging from […]. 150 μl of each diluted compound were then added to each well (final concentration of DMSO was less than 1%) and incubated at 37° C. in an incubator under 5% of CO2 for 72 h. After incubation, 20 μl of Alamar Blue reagent (Invitrogen, #DAL1100) were added to each well. The plates were shaked on an orbital shaker (Biosan, Latvia) and then incubated for 14-16 hours at 37° C. in the incubator.
# (§3) The number of living cells were estimated, measuring the fluorescence signal at the excitation wavelength (REx) of 540 nm and the emission wavelength (λEm) of 590 nm on a microplate reader (Tecan Infinite M200Pro, Switzerland).
# (§4) For each compound, IC50 was calculated using Magellan 7.2 software (Tecan, Switzerland) approximating experimental points by four-parameter logistic model with the optimization by Levenberg-Marquardt.
# [2] = test system: Z-138 (mantle cell lymphoma); assay: Antiproliferative activity, Z-138 cells (Alamar Blue); type: cell-based; conditions: Homo sapiens
# Experimental: as §1, §2, §3, §4
# [3] = General cytotoxicity on HepG2 cells (CC50; therapeutic index CC50 HepG2/IC50 Mino); type: cell-based; conditions: human, HepG2 cells (hepatocellular carcinoma), 72 hours, Alamar Blue
# Experimental: (§5) The CC50 values were determined in the test for General cytotoxicity on HepG2 cells (hepatocellular carcinoma, ATCC® HB-8065™). 2*10^4 cells (in 50 μl) per well were seeded in 96-well plates (Corning, #3599) in DMEM medium (PanEco, #S420p), after 24 h of incubation 150 μl of candidate compounds were added to each well in the range of final concentrations from 200 μM to 4 μM and the plate was incubated in a total volume of 200 μl for 72 hours. Viability of the cells was assessed using Alamar Blue dye (Invitrogen, #DAL 1100). CC50 was determined similarly (table 10).
# (§6) The relationship between toxic (CC50) and a therapeutic (IC50) effects of the dose is the therapeutic index, which can be expressed as the ratio between CC50 (HepG2) (general cytotoxicity of the candidate) and IC50 (Mino) (antiproliferative activity on the target cells): […]
# [4] = test system: HepG2 cells (hepatocellular carcinoma); assay: as above; type: cell-based; conditions: therapeutic index
# Experimental: as §5, §6
# [5] = Chemical stability in artificial gastric fluid (SGF without enzymes); conditions: 10 μM in SGF without enzymes, pH=1.4, 37° C.
# [6] = Table 10, 72 h, average of several tests
# [7] = Table 10, average of several tests
SMILES,"IC50 [1, 6] [µM]","IC50 [2, 6] [µM]","CC50 at 72 h [3, 7] [µM]",CC50 (HepG2)/IC50 (Mino) ([4]; Table 10),Amount of substance in the sample in % (chemical stability) [5] [%],"IC50 ([1]; Table 11, 72 h) [µM]","IC50 ([2]; Table 11, 72 h) [µM]",CC50 at 72 h ([3]; Table 11) [µM],CC50 (HepG2)/IC50 (Mino) ([4]; Table 11)
"C=CC(=O)N1CCC[C@@H](n2nc(-c3ccc(-n4ccc(=O)cc4)nc3)c3cncc(Cl)c32)C1 [BCD-BTK-56, (R)-5′-(1-(1-acryloylpiperidin-3-yl)-7-chloro-1H-pyrazolo[4,3-c]pyridin-3-yl)-4H-[1,2′-bipyridin]-4-one]",32.5,30.5,> 50,>1.54,99.0,–,–,–,–
"C=CC(=O)N1CCC[C@@H](n2nc(-c3ccc(-n4ccc(=O)cc4)cc3)c3c(N)ncc(Cl)c32)C1 [BCD-BTK-9, (R)-1-(4-(1-(1-acryloylpiperidin-3-yl)-4-amino-7-chloro-1H-pyrazolo[4,3-c]pyridin-3-yl)phenyl)pyridin-4(1H)-one]",23.5,44.1,> 100,>4.25,100.0,–,–,–,–
"C=CC(=O)N1CCC[C@@H](n2nc(-c3ccc(C(=O)Nc4cc(C(F)(F)CC)ccn4)cc3)c3cncc(C#N)c32)C1 [BCD-BTK-219, 4-{7-cyano-1-[1-(prop-2-enoyl)piperidin-3-yl]-1H-pyrazolo[4,3-c]pyridin-3-yl}-N-[4-(1,1-difluoropropyl)pyridin-2-yl] benzamide]",10.1,~50,> 100,>9.95,96.7,–,–,–,–
"C=CC(=O)N1CCC[C@@H](n2nc(-c3ccc(Oc4ccccc4)cc3)c3c(N)ncnc32)C1 [Ibrutinib, ibrutinib, reference compound]",–,–,–,–,–,9.18,15.1,54.9,5.98
"C=CC(=O)Nc1cc2c(-c3ccc(-n4ccc(=O)cc4)cc3)nn([C@@H]3CCCN(C(=O)C=C)C3)c2nc1C [BCD-BTK-117, (R)-N-(1-(1-acryloylpiperidin-3-yl)-6-methyl-3-(4-(4-oxopyridin-1(4H)-yl)phenyl)-1H-pyrazolo[3,4-b]pyridin5-yl)acrylamide]",13.3,23.4,> 50,>3.76,99.7,–,–,–,–
"C=CC(=O)N1CCC[C@@H](n2nc(-c3ccc(C(=O)Nc4ncccc4F)cc3)c3cncc(F)c32)C1 [BCD-BTK-249, (R)-4-(1-(1-acryloylpiperidin-3-yl)-7-fluoro-1H-pyrazolo[4,3-c]pyridin-3-yl)-N-(3-fluoropyridin-2-yl)benzamide]",28.8,> 50,~100,>3.47,–,–,–,–,–
"C=CC(=O)N1CC(Cn2nc(-c3ccc(Oc4ccncc4)cc3)c3cncc(Cl)c32)C1 [BCD-BTK-264, 1-(3-((7-chloro-3-(4-(pyridin-4-yloxy)phenyl)-1H-pyrazolo[4,3-c]pyridin-1-yl)methyl)azetidin-1-yl)prop-2-en-1-one]",4.92,14.3,10.5,2.13,97.8,–,–,–,–
"CC#CC(=O)N1CC[C@H](n2nc(-c3ccc(Oc4ccncc4)cc3)c3cncc(Cl)c32)C1 [BCD-BTK-270, (S)-1-(3-(7-chloro-3-(4-(pyridin-4-yloxy)phenyl)-1H-pyrazolo[4,3-c]pyridin-1-yl)pyrrolidin-1-yl)but-2-yn-1-one]",6.79,14.3,23.4,3.45,99.1,–,–,–,–
C=CC(=O)N1CCC[C@@H](n2nc(-c3ccc(Oc4ccncc4)cc3)c3cc(O)cc(C#N)c32)C1 [BCD-BTK-137],11.6,25.6,65.9,5.70,94.3,–,–,–,–
"C=CC(=O)N1CCC[C@@H](n2nc(-c3ccc(Oc4ccncc4)cc3)c3cncc(C(N)=O)c32)C1 [BCD-BTK-140, (R)-1-(1-acryloylpiperidin-3-yl)-3-(4-(pyridin-4-yloxy)phenyl)-1H-pyrazolo[4,3-c]pyridin-7-carboxamide]",16.9,> 50,> 100,>5.93,99.4,–,–,–,–
"C=CC(=O)N1CCC[C@@H](n2nc(-c3cnc(-n4ccc(=O)cc4)nc3)c3c(N)ncc(Cl)c32)C1 [BCD-BTK-74, (R)-1-(5-(1-(1-acryloylpiperidin-3-yl)-4-amino-7-chloro-1H-pyrazolo[4,3-c]pyridin-3-yl)pyrimidin-2-yl)pyridin-4(1H)-one]",21.9,17.6,100,4.57,98.7,–,–,–,–
"C=CC(=O)N1CCC[C@@H](n2nc(-c3ccc(-n4ccc(=O)cc4)nc3)c3c(N)ncc(Cl)c32)C1 [BCD-BTK-76, (R)-5′-(1-(1-acryloylpiperidin-3-yl)-4-amino-7-chloro-1H-pyrazolo[4,3-c]pyridin-3-yl)-4H-[1,2′-bipyridin]-4-one]",16,19.6,> 100,>6.27,99.7,–,–,–,–
"C=CC(=O)N1CCC[C@@H](n2nc(-c3ccc(-n4ccc(=O)cc4)cc3)c3c(Cl)c(O)cnc32)C1 [BCD-BTK-13, (R)-1-(4-(1-(1-acryloylpiperidin-3-yl)-4-chloro-5-hydroxy-1H-pyrazolo[3,4-b]pyridin-3-yl)phenyl)pyridin-4(1H)-one]",37.1,> 50,> 100,>2.70,91.0,–,–,–,–
"CC#CC(=O)N1CC(n2nc(-c3ccc(Oc4ccncc4)cc3)c3cncc(Cl)c32)C1 [BCD-BTK-281, 1-(3-(7-chloro-3-(4-(pyridin-4-yloxy)phenyl)-1H-pyrazolo[4,3-c]pyridin-1-yl)azetidin-1-yl)but-2-yn-1-one]",5.63,4.67,15.8,2.81,–,–,–,–,–
"C=CC(=O)N1CCC[C@@H](n2nc(-c3ccc(Oc4ccncc4C(N)=O)cc3)c3cncc(F)c32)C1 [BCD-BTK-246, (R)-4-(4-(1-(1-acryloylpiperidin-3-yl)-7-fluoro-1H-pyrazolo[4,3-c]pyridin-3-yl)phenoxy)nicotinamide]",32.4,23.7,> 100,>3.09,100,–,–,–,–
"C=CC(=O)N1CCC[C@@H](n2nc(-c3ccc(-n4ccc(=O)cc4)cc3)c3cncc(Cl)c32)C1 [BCD-BTK-30, (R)-1-(4-(1-(1-acryloylpiperidin-3-yl)-7-chloro-1H-pyrazolo[4,3-c]pyridin-3-yl)phenyl)pyridin-4(1H)-one]",15.6,22.7,61.5,3.94,97.7,–,–,–,–
"C=CC(=O)N1CC(n2nc(-c3ccc(Oc4ccncc4)cc3)c3cncc(Cl)c32)C1 [BCD-BTK-282, 1-(3-(7-chloro-3-(4-(pyridin-4-yloxy)phenyl)-1H-pyrazolo[4,3-c]pyridin-1-yl)azetidin-1-yl)prop-2-en-1-one]",4.02,4.3,9.45,2.35,–,–,–,–,–
"C=CC(=O)N1CCC[C@@H](n2nc(-c3ccc(C(=O)Nc4cc(C(F)(F)F)ccn4)cc3)c3cncc(F)c32)C1 [BCD-BTK-245, (R)-4-(1-(1-acryloylpiperidin-3-yl)-7-fluoro-1H-pyrazolo[4,3-c]pyridin-3-yl)-N-(4-(trifluoromethyl)pyridin-2-yl)benzamide]",–,–,–,–,100,–,–,–,–
